Data reported in patent US20090110671A1, “AGENT FOR ENHANCHING THE PRODUCTION OF COLLAGEN AND IT'S USE” (priority 2005, published 2009).

Experiments:
[1] = tested on: NHDF cells; experiment: Experiment 2: collagen sedimented over cell surface and released in supernatant of NHDF cells, α,α-trehalose or maltose with AA-2G; format: cell-based, human
Procedure: Influence of α,α-trehalose and maltose on collagen production using NHDF cells was examined by the following experiment: Test solutions were prepared by dissolving either AA-2G; hydrous crystalline α,α-trehalose, a reagent grade specimen, commercialized by Hayashibara Biochemical Laboratories Inc., Okayama, Japan; or hydrous crystalline maltose, a reagent grade specimen, commercialized by Hayashibara Biochemical Laboratories Inc., Okayama; Japan, in […] The methods for culturing NHDF cells and quantifying the collagen-production level of the cells were conducted similarly as in Experiment 1. The collagen level in each culture supernatant of NHDF cells was determined in such a manner of collecting the culture supernatant and quantifying the collagen released in the supernatant by using “Sircol Collagen Quantification Kit”. As a control, D-MEM medium containing 50 μM AA-2G was used. These control and test solutions were respectively experimented using three wells, followed by calculating a mean value for collagen-production levels in the wells. The results are in Table 2 where the values are expressed with relative values for either or both of the levels of collagen, that had sedimented over the cell surfaces or released in the supernatants, in terms of their collagen-production levels of NHDF cells, which had been cultured in D-MEM medium containing 50 μM AA-2G, being regarded as 100.

[2] = tested on: NHDF cells; experiment: Experiment 4: collagen production in NHDF cells, saccharides combined with hyaluronic acid and/or chondroitin sulfate; format: cell-based, human
From the text: Influence of α,α-trehalose or a saccharide derivative thereof, or a combination use of any of these saccharides and hyaluronic acid and/or chondroitin sulfate on the collagen production by L-ascorbic acids was examined as follows. AA-2G and any one of hydrous crystalline α,α-trehalose, a reagent grade specimen commercialized by Hayashibara Biochemical Laboratories Inc., Okayama, Japan; α-maltosyl α,α-trehalose with a purity of at least 98% commercialized by Hayashibara Biochemical Laboratories Inc., Okayama, Japan; and “HALLODEX”, a product name of a syrup of saccharide derivatives of α,α-trehalose were dissolved in D-MEM medium to give final concentrations of 50 μM of AA-2G and 15.0 mg/ml of saccharides. Further, as another test solutions, those, which had been prepared similarly as in the above, were admixed with any one of hyaluronic acid, chondroitin sulfate, and a combination thereof to give respective concentrations of 1 mg/ml, 1 mg/ml, and 0.5 mg/ml of hyaluronic acid and chondroitin sulfate each. The medium supplemented with a syrup containing about 59%, d.s.b., of saccharide derivatives of α,α-trehalose was prepared to give a concentration of 15.0 mg/ml of the saccharide derivatives of α,α-trehalose contained in the syrup. The culture of NHDF cells and the quantification of collagen-production level thereof were carried out similarly as in Experiment 1. The results are in Table 4 where the values are expressed with relative values in terms of the collagen-production level of NHDF cells, being regarded as 100, when cultured in D-MEM medium containing AA-2G.

[3] = tested on: NHDF cells (normal human dermal fibroblast cell); experiment: Experiment 1: collagen production in NHDF cells (Sircol kit), α,α-trehalose with AA-2G; format: cell-based; details: D-MEM with 50 μM AA-2G, no α,α-trehalose; reference regarded as 100
Procedure: Using “fibrocell NHDF”, a normal human dermal fibroblast cell, commercialized by Kurashiki Spinning Co., Ltd., Okayama, Japan (abbreviated as “NHDF cells”, hereinafter), experiment for studying the influence of α,α-trehalose on the collagen production by L-ascorbic acids was conducted based on the method described in Bioscience, Biotechnology, and Biochemistry, Vol. 68, No. 4, pp. 767-773, 2004. The method is outlined below: Test solutions were prepared by dissolving L-ascorbic acid 2-glucoside, a reagent grade specimen commercialized by Hayashibara Biochemical Laboratories Inc., Okayama, Japan (may be abbreviated as “AA-2G”, hereinafter), and α,α-trehalose, a reagent grade specimen commercialized by Hayashibara Biochemical Laboratories Inc., Okayama, Japan, in Dulbecco […] essential medium containing 10% (v/v) fetal calf serum and an antibiotic (abbreviated as “D-MEM”, hereinafter) to give a final concentration of 50 μM/ml of AA-2G and a final concentration of 7.5, 15 or 30 mg/ml of α,α-trehalose. NHDF cells, which had been successively cultured in D-MEM medium, were collected, re-suspended in a fresh preparation of D-MEM medium, inoculated to 96-well microplates at a cell concentration of 2.5×10^4 cells/200 μl/well, and cultured for 24 hours. Thereafter, the supernatants of the cultures were removed by sucking, and further cultured for five days after addition of any of the test solutions in a volume of 200 μl/well. As controls, the cells, which had been cultured for 24 hours, were further cultured for five days after addition of 200 μl/well of D-MEM medium, D-MEM medium supplemented with α,α-trehalose at a concentration of 30 mg/ml, or D-MEM medium supplemented with AA-2G at a concentration of 50 μM/ml. After completion of culturing, the supernatants of the cultures were removed by sucking, admixed with 50 μl/well of 1 M acetic acid solution containing 1 mg/ml of pepsin, and shaken for four hours to solubilize collagen adhered to the cell surfaces, followed by quantifying the content of collagen accumulated in the cells using “Sircol Collagen Quantification Kit”, commercialized by Biocolor Ltd. These control and test solutions were respectively experimented with three wells, followed by calculating a mean value for collagen-production levels in the wells. All the cultures of the NHDF cells were conducted in a 5% (v/v) CO2 incubator. The results are in Table 1 where the values are expressed with relative values in terms of the collagen-production level of NHDF cells, which had been cultured in D-MEM medium containing AA-2G, being regarded as 100.

[4] = tested on: NHDF cells; experiment: Experiment 3: collagen production in NHDF cells, α,α-trehalose and saccharide derivatives with or without AA-2G; format: cell-based, human
Procedure: Based on the confirmation that α,α-trehalose has an action of enhancing the collagen production by L-ascorbic acid, it was experimented as follows to confirm whether saccharide derivatives of α,α-trehalose have such a similar action and effect. Test solutions were prepared by dissolving in D-MEM medium any one of AA-2G, hydrous crystalline α,α-trehalose, a reagent grade specimen with a purity of at least 98%, commercialized by Hayashibara Biochemical Laboratories Inc., Okayama, Japan; “HALLODEX”, a product name of a syrup of saccharide derivatives of α,α-trehalose, having a solid content of about 75% and containing, on a dry solid basis, about 53% of α-maltosyl α,α-trehalose and about 5% of other saccharide derivatives of α,α-trehalose in total, to give final concentrations of 50 μM of AA-2G and 15.0 mg/ml of saccharides. As a control, test solutions were prepared by dissolving in D-MEM medium either of the above hydrous crystalline α,α-trehalose, α-maltosyl α,α-trehalose, or syrup of saccharide derivatives of α,α-trehalose to give a final concentration of 15.0 mg/ml. The medium admixed with the syrup containing saccharide derivatives of α,α-trehalose was adjusted to give a concentration of 15.0 mg/ml of saccharide derivatives of α,α-trehalose. The culture of NHDF cells and the quantification of collagen-production level thereof were carried out similarly as in Experiment 1. The results are in Table 3, where the values are expressed with relative values in terms of the collagen production level of NHDF cells, being regarded as 100, when cultured in D-MEM medium containing AA-2G.

[5] = tested on: skin wrinkles/finely-wrinkles and flabby skin; experiment: Experiment 5: self-evaluation of lotions on skin wrinkles/finely-wrinkles and flabby skin, four months; format: in vivo, human; details: lotion, no saccharide, 3 times a day, 4 months
Procedure: The following experiment was conducted to examine the influence of α,α-trehalose or saccharide derivatives thereof and hyaluronic acid and/or chondroitin sulfate on the skin. Since there exists a relatively constant amount of L-ascorbic acid in vivo, the collagen production by L-ascorbic acid proceeds constantly. Based on the following basic formulation for lotion and the combination and composition in Table 5, 100 parts by weights of a lotion was prepared by adding to the basic formulation sodium hyaluronate, chondroitin sulfate, hydrous crystalline α,α-trehalose, a cosmetic grade specimen commercialized by Hayashibara Biochemical Laboratories Inc., Okayama, Japan, and “[…]”, a product name of a syrup having a solid content of about 75% and containing, on a dry solid basis, about 53% by weight of α-maltosyl α,α-trehalose and about 5% by weight of other saccharide derivatives of α,α-trehalose, and an adequate amount of refined water. In Table 5, the respective amounts of the added saccharide are expressed on a dry solid basis. The syrup containing saccharide derivatives of α,α-trehalose was added in an amount of the saccharide derivatives as shown in Table 5. Eleven women as volunteers, who had been suffering from skin wrinkles/finely-wrinkles or flabby skin, were allowed to wash their faces with any of the lotions having compositions in Table 5 three times a day for four months and then allowed to evaluate themselves about their face-skin conditions by comparing with those before use of the lotions.

[6] = saccharide 0.2 mg/ml + 50 μM AA-2G, relative to AA-2G = 100
[7] = saccharide 0.6 mg/ml + 50 μM AA-2G, relative to AA-2G = 100
[8] = saccharide 1.7 mg/ml + 50 μM AA-2G, relative to AA-2G = 100
[9] = saccharide 5.0 mg/ml + 50 μM AA-2G, relative to AA-2G = 100
[10] = saccharide 15.0 mg/ml + 50 μM AA-2G, relative to AA-2G = 100
[11] = D-MEM containing 50 μM AA-2G alone, reference regarded as 100
[12] = chondroitin sulfate 0.5 part by weight
[13] = sodium hyaluronate 0.5 part by weight

OC[C@H]1O[C@H](O[C@H]2[C@H](O)[C@@H](O)C(O)O[C@@H]2CO)[C@H](O)[C@@H](O)[C@@H]1O (mixture of isomers) [maltose]
Collagen-production level, In supernatant [1, 6]: 101 | Collagen-production level, Total [1, 6]: 99 | Collagen-production level, In supernatant [1, 7]: 134 | Collagen-production level, Total [1, 7]: 92 | Collagen-production level, In supernatant [1, 8]: 288 | Collagen-production level, Total [1, 8]: 97 | Collagen-production level, In supernatant [1, 9]: 256 | Collagen-production level, Total [1, 9]: 61 | Collagen-production level, In supernatant [1, 10]: 228 | Collagen-production level, Total [1, 10]: 44

O=C1O[C@H]([C@@H](O)CO)C(O)=C1O[C@H]1O[C@H](CO)[C@@H](O)[C@H](O)[C@H]1O [AA-2G, L-ascorbic acid 2-glucoside, reference compound]
Collagen-production level ([2]; no saccharide, 50 μM AA-2G alone, reference regarded as 100): 100 | Collagen-production level [3]: 100 | Collagen-production level ([4]; no saccharide, 50 μM AA-2G added, reference regarded as 100): 100 | Collagen-production level, In supernatant [1, 11]: 100 | Collagen-production level, Total [1, 11]: 100

OC[C@H]1O[C@H](O[C@H]2O[C@H](CO)[C@@H](O[C@H]3O[C@H](CO)[C@@H](O[C@H]4O[C@H](CO)[C@@H](O)[C@H](O)[C@H]4O)[C@H](O)[C@H]3O)[C@H](O)[C@H]2O)[C@H](O)[C@@H](O)[C@@H]1O [α-Maltosyl α,α-trehalose, α-maltosyl α,α-trehalose]
Collagen-production level ([2]; saccharide 15.0 mg/ml + 50 μM AA-2G): 158 | Collagen-production level ([2]; saccharide 15.0 mg/ml + 50 μM AA-2G + chondroitin sulfate 1 mg/ml): 188 | Collagen-production level ([2]; saccharide 15.0 mg/ml + 50 μM AA-2G + hyaluronate and chondroitin sulfate 0.5 mg/ml each): 276 | Collagen-production level ([2]; saccharide 15.0 mg/ml + 50 μM AA-2G + sodium hyaluronate 1 mg/ml): 199 | Collagen-production level ([2]; saccharide 15.0 mg/ml alone, no AA-2G, no hyaluronate, no chondroitin sulfate): 39 | Collagen-production level [4, 10]: 182 | Collagen-production level ([4]; saccharide 15.0 mg/ml, AA-2G not added, relative to AA-2G = 100): 39

chondroitin sulfate
Collagen-production level ([2]; no saccharide, 50 μM AA-2G + chondroitin sulfate 1 mg/ml): 97 | Evaluation A (remarkably efficacious) [5, 12]: 0 number of volunteers | Evaluation B (efficacious) [5, 12]: 0 number of volunteers | Evaluation C (slightly efficacious) [5, 12]: 1 number of volunteers | Evaluation D (inefficacious) [5, 12]: 10 number of volunteers

sodium hyaluronate
Collagen-production level ([2]; no saccharide, 50 μM AA-2G + sodium hyaluronate 1 mg/ml): 98 | Evaluation A (remarkably efficacious) [5, 13]: 0 number of volunteers | Evaluation B (efficacious) [5, 13]: 0 number of volunteers | Evaluation C (slightly efficacious) [5, 13]: 2 number of volunteers | Evaluation D (inefficacious) [5, 13]: 9 number of volunteers
